Measurements published in US7087590B2, “19-norbufalin derivatives, their preparation and pharmaceutical compositions containing them” (Yissum Research Development Company of the Hebrew …, priority 2000, dated 2006).
Where two headings read alike, the source gives them in different places.

Legend:
[1] = test system: K562 cells; assay: Morphological changes / differentiation of K562 cells; format: cell-based
Source text: Morphological changes of K562 cells, grown in appropriate media, was followed. Control cells after 2 days in culture. • FIG. 4b. Cells after 2 days in culture, the presence of 10^−8M ouabain. […] Cells after 2 days in culture, in the presence of 10^−8M compound 13b. […] Control cells after 6 days in culture. • FIG. 4e. Cells after 6 days in culture, in the presence of 10^−7M ouabain. […] Cells after 6 days in culture, in the presence of 10^−6M compound 13b.

[2] = test system: guinea pigs
Source text: Intraventricular pressure was monitored using a Millar catheter. […] The upper traces depict ECG recording from a subcutaneous electrode (lead II). The middle traces show left ventricle pressure and the lower traces the dp/dt (change in pressure with time).

[3] = test system: guinea pigs; remark: listed apart in the source
Source text: Guinea pigs were maintained under anesthesia, the jugular artery was catheterized and blood pressure was monitored via a pressure transducer. Two ECG electrodes were placed under the skin and ECG was monitored following amplification.

[4] = test system: Mg^++-ATPase; assay: Mg++-ATPase activity in rat brain microsomal fraction (with 1 mM ouabain); format: biochemical
Method: (§1) Total and Na^+ and K^+ dependent ATPase activities were measured in rat brain microsomal fraction. Enzyme activity was measured by the colorimetric determination of inorganic phosphate after the incubation of microsomes (30 μg protein/reaction) at 37° C. in a solution (final volume 500 μl) containing (final concentrations) Tris-HCl ([…], pH 7.4), NaCl (100 mM), KCl (10 mM), MgCl2 (4 mM) and ATP (2 mM, Tris, vanadium free). After 10 minutes preincubation, the ATP was added to initiate the reaction. Reactions were terminated by the addition of 100 μl 5% trichloroacetic acid and the precipitate was removed by centrifugation. Mg^++-ATPase activity was determined by the addition of ouabain (1 mM) to the assay mixture.

[5] = test system: Na^+,K^+-ATPase; assay: Na+,K+-ATPase activity in rat brain microsomal fraction (colorimetric inorganic phosphate); format: biochemical
Method: as §1

[6] = test system: guinea pig atrial muscle; assay: Heart muscle contractility of isolated atrial strips
Method: Experiments were conducted on frog atrial muscle or guinea pigs atrium. The animals were anaesthetized by MS22 (frogs) or pentobarbital (guinea pigs) (10 mg/kg). Their hearts were removed quickly into Krebs-Henseleit buffer. Atrial strips were mounted vertically in a chamber at 37° C. The muscle contractility was recorded by a transducer (FSG-01, Experimentia) connected to a computer Acodas software (DataQ instruments). […] The effect of compound 17b at 10 nM to frog atrial muscle. 2.

[7] = test system: guinea pigs; assay: Toxicity on injection to guinea pigs; settings: doses of up to 13 mg/kg

Structure (SMILES): C[C@@H]1O[C@@H](O[C@H]2C[C@@H](O)[C@]3(CO)[C@H]4[C@H](O)C[C@]5(C)[C@@H](C6=CC(=O)OC6)CC[C@]5(O)[C@@H]4CC[C@]3(O)C2)[C@H](O)[C@H](O)[C@H]1O [ouabain, reference compound]
- K562 cell morphology / differentiation ([1]; 10^−7M, 6 days in culture): Cell degradation and death is evident
- K562 cell morphology / differentiation ([1]; 10^−8M, 2 days in culture): does not show any effects

Structure (SMILES): C[C@]12CC[C@H]3[C@@H](CC[C@@H]4C[C@@H](O)CC[C@@H]43)[C@@H]1[C@H](O)C[C@@H]2c1coc(CO)c1 (single isomer, unassigned) [13-3 (β isomer), 4-(3′β,15′βdihydroxy-5β-estran-17β-yl)furan-2-methyl alcohol]
- Cardiac contractility in vivo (in words) ([2]; 2.6 mg/kg injected to guinea pigs (FIG. 5A)): induced an elevation in cardiac contractility

Structure (SMILES): C[C@H]1O[C@@H](O[C@H]2[C@@H](O)C[C@H](O[C@H]3[C@@H](O)C[C@H](O[C@H]4CC[C@@]5(C)[C@H](CC[C@@H]6[C@@H]5C[C@@H](O)[C@]5(C)[C@@H](C7=CC(=O)OC7)CC[C@]65O)C4)O[C@@H]3C)O[C@@H]2C)C[C@H](O)[C@@H]1O [Digoxin, digoxin, reference compound]
- Cardiac contractility in vivo (in words) ([2]; 2 mg/kg injected to guinea pigs): increase in contractilty
- Bradycardia ([2]; 2 mg/kg, guinea pigs (FIG. 5B)): induced bradycardia
- Death after ([2]; digoxin 2 mg/kg, guinea pig): 40 min
- LVEDP (left ventricle end diastolic pressure) ([2]; digoxin 2 mg/kg, control 17.3): 49.78 mmHg
- LVSP (left ventricle systolic pressure) ([2]; digoxin 2 mg/kg, control 75): 232.4 mmHg
- HR (heart rate) ([2]; digoxin 2 mg/kg, control 327): 300 beat/min
- dp/dt (change in pressure with time) ([2]; digoxin 2 mg/kg, control 1620.7): 4248.4 mmHg/sec
- Time to lethal cardiac arrhythmia ([3]; 2.5 mg/kg subcutaneously, guinea pigs (FIG. 6B)): 2.5 h

Structure (SMILES): C[C@]12CC[C@H]3[C@@H](CC[C@@H]4CC(OCc5ccccc5)CC[C@@H]43)[C@@H]1[C@H](O)C[C@@H]2c1coc(C2OCCO2)c1 (stereo partly drawn) [Compound 13b, 4-(′3-benzyloxy-15′β-hydroxy-5β-estran-17′β-yl)furan-2-carbaldehyde ethylene acetal]
- Mg^++-ATPase activity (% of control) ([4]; 1 nM compound): 100 % of control
- Mg^++-ATPase activity (% of control) ([4]; 10 nM compound): 86 % of control
- Mg^++-ATPase activity (% of control) ([4]; 100 nM compound): 88 % of control
- Mg^++-ATPase activity (% of control) ([4]; 1000 nM compound): 89 % of control
- Mg^++-ATPase activity (% of control) ([4]; 10000 nM compound): 86 % of control
- K562 cell morphology / differentiation ([1]; 10^−6M, 6 days in culture): Cell elongation, indicative of differentiation
- K562 cell morphology / differentiation ([1]; 10^−8M, 2 days in culture): differentiation manifested in cells elongation
- Na^+, K^+-ATPase activity (% of control) ([5]; 1 nM compound): 100 % of control
- Na^+, K^+-ATPase activity (% of control) ([5]; 10 nM compound): 64 % of control
- Na^+, K^+-ATPase activity (% of control) ([5]; 100 nM compound): 38 % of control
- Na^+, K^+-ATPase activity (% of control) ([5]; 1000 nM compound): 22 % of control
- Na^+, K^+-ATPase activity (% of control) ([5]; 10000 nM compound): 2 % of control
- Increase in the force of contraction ([6]; guinea pig atrial muscle preparation, after 10 minutes (FIG. 3a)): about 30%
- Heart muscle contractility (in words) ([6]; guinea pig muscle strip, 10 minutes after addition (FIG. 3a)): increase of heart muscle contractility is evident
- Toxicity when injected to guinea pigs [7]: not toxic

Structure (SMILES): C[C@]12CC[C@H]3[C@@H](CC[C@@H]4C[C@@H](O)CC[C@@H]43)[C@@H]1[C@H](O)C[C@@H]2c1coc(CO)c1 [Compound 13-3, 4-(3′β,15′βdihydroxy-5β-estran-17β-yl)furan-2-methyl alcohol]
- LVEDP (left ventricle end diastolic pressure) ([2]; β isomer of 13-3, 2.6 mg/kg, 10 min after injection, control 5.52): 51.70 mmHg
- LVSP (left ventricle systolic pressure) ([2]; β isomer of 13-3, 2.6 mg/kg, 10 min after injection, control 10.83): 67.88 mmHg
- HR (heart rate) ([2]; β isomer of 13-3, 2.6 mg/kg, 10 min after injection, control 226.2): 295.74 beat/min
- dp/dt (change in pressure with time) ([2]; β isomer of 13-3, 2.6 mg/kg, 10 min after injection, control 2248.19): 3319.11 mmHg/sec
- LVEDP (left ventricle end diastolic pressure) ([2]; β isomer of 13-3, 2.6 mg/kg, 33 min post injection, control 5.52): 51.98 mmHg
- LVSP (left ventricle systolic pressure) ([2]; β isomer of 13-3, 2.6 mg/kg, 33 min post injection, control 10.83): 124.61 mmHg
- HR (heart rate) ([2]; β isomer of 13-3, 2.6 mg/kg, 33 min post injection, control 226.2): 325 beat/min
- dp/dt (change in pressure with time) ([2]; β isomer of 13-3, 2.6 mg/kg, 33 min post injection, control 2248.19): 4215.86 mmHg/sec
- LVEDP (left ventricle end diastolic pressure) ([2]; β isomer of 13-3, 2.6 mg/kg, 7 hr. post injection, control 5.52): 37.57 mmHg
- LVSP (left ventricle systolic pressure) ([2]; β isomer of 13-3, 2.6 mg/kg, 7 hr. post injection, control 10.83): 107.45 mmHg
- HR (heart rate) ([2]; β isomer of 13-3, 2.6 mg/kg, 7 hr. post injection, control 226.2): 340 beat/min
- dp/dt (change in pressure with time) ([2]; β isomer of 13-3, 2.6 mg/kg, 7 hr. post injection, control 2248.19): 5146.12 mmHg/sec
- Toxicity when injected to guinea pigs [7]: not toxic
- Effect on digoxin-induced cardiac arrhythmia ([3]; 2.5 mg/kg subcutaneously 30 minutes before 2.5 mg/kg digoxin, guinea pigs (FIG. 6C)): prevented induction of cardiac arrhythmia
